The values that follow come from paper PMC10204800 (Frontiers in Pharmacology, 2023).

The target of this assay is T1, hDOR (human delta opioid receptor) (Homo sapiens, UniProt P41143).
T1 construct: gene OPRD1; stably transfected in CHO cells (CHO-hDOR); membrane homogenates
In kind it is binding. To be noted: read-out: Ki values (nM) Mean (SEM).

T1 sequence (P41143 whole entry): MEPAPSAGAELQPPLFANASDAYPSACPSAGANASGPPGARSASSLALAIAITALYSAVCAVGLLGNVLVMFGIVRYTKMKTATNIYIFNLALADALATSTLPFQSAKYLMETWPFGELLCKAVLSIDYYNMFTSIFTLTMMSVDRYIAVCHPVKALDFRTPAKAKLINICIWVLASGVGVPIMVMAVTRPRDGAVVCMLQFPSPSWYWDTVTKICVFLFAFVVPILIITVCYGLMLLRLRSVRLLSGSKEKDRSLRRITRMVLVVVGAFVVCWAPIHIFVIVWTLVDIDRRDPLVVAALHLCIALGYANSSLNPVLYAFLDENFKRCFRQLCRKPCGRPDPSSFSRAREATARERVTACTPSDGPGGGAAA

For the substance “(4R,4aS,6R,7R,7aR,12bS)-3-(cyclopropylmethyl-d 2 )-6-(2-hydroxy-3,3-dimethylbutan-2-yl)-7-methoxy-1,2,3,4,5,6,7,7a-octahy dro-4a,7-ethano-4,12-methanobenzofuro[3,2-e]isoquinolin-9-ol [BUP-D2]”, the Ki (in general, a dissociation constant, usually derived from enzyme kinetics or from competition with a known ligand) was 0.424 nM.
